Assay results: article PMC10653547, “Synergistic effect of two antimicrobial peptides, BP203 and MAP-0403 J-2 with conventional antibiotics against colistin-resistant Escherichia coli and Klebsiella pneumoniae clinical isolates” (PLOS ONE, 2023)
Converted amounts (≈) assume the structure as drawn. Like-named read-outs stand apart in the source and are kept apart here. No end group written: not given here.

Experiments:
[1] = system: MRC-5 (CCL-171) normal lung fibroblast cells; assay: Cytotoxicity assay using MTT; assay type: cell-based, human; conditions: for Cell viability at highest concentration: 200 μg/mL, 24 h; for IC50: 24 h exposure
Method: MRC-5 (CCL-171) cell line, a representative of normal lung fibroblast cells, was used to investigate the cytotoxic effects of two AMPs, BP203 and MAP-0403 J-2. The cells were grown in Dulbecco’s Modified Eagle Medium (DMEM, Cytiva Life Sciences, Marlborough, MA, USA), supplemented with 10% fetal bovine serum (FBS), 1% penicillin (10,000 U/mL) and streptomycin (10,000 μg/mL) (Gibco, Waltham, MA, USA). 2×10^4 cells were seeded into each well of a 96-well plate and allowed to adhere for 24 h. Then, these cells were subjected to exposure to a medium containing a prepared two-fold serial dilution of BP203 or MAP-0403 J-2. […] 3-(4,5-Dimethylthiazol-2-yl)-2,5-Diphenyltetrazolium Bromide (MTT) was introduced into each well to achieve a concentration of 0.5 mg/mL followed by 4 h. incubation. Subsequently, formazan crystals were dissolved through the addition of 100 μL of a solubilizing solution composed of 10% SDS in 0.1 N HCl and the developed color was measured using a microtiter plate reader at an optical density (OD) of 570 nm. Cell viability was calculated as follows: (ODsample/ODcontrol) × 100.

[2] = cited from earlier work
Text: The stability of AMPs is crucial for storage and applications. Temperature and pH are critical parameters impacting AMP stability. In addition, the good stability of AMPs to physiological salts and serum has been considered a desirable property for clinical applications. In this study, BP203 and MAP-0403 J-2 retained antibacterial activity under elevated temperatures, various pH conditions, and in the presence of physiological salts and serum environment. […] The hemolytic activity of BP203 at 150 μM (~300 μg/mL) wa ...

[3] = system: K. pneumoniae ATCC BAA-1706
Method: (§1) The MICs of BP203 and MAP-0403 J-2 against clinically colistin-resistant E. coli and K. pneumoniae isolates were determined using the broth microdilution method, according to CLSI recommendations. Briefly, the peptides were subjected to serial dilution in cation-adjusted Mueller-Hinton broth (CAMHB) and added to a 96-well microtiter plate (Wuxi NEST Biotechnology, Wuxi, China). Subsequently, bacterial suspensions from freshly mid-log phase cultures were diluted to 10^6 CFU/mL with CAMHB, and introduced to each well containing the peptides.
(§2) The antibacterial activity of BP203 and MAP-0403 J-2 was evaluated concerning their response to temperature, pH, serum, and salt ions using the MIC assay, following the previously mentioned procedure. The MIC values of peptides were determined against E. coli ATCC29522 and K. pneumoniae ATCC BAA-1706. […] For the pH stability assay, both peptides were incubated in buffers with different pH values (100 mM buffers: glycine-HCl buffer (pH 2.0), sodium acetate buffer (pH 4.0), sodium phosphate buffer (pH 6.0), Tris-HCl buffer (pH 8.0), and glycine-NaOH buffer (pH 10.0)) for 1 h at 37°C. […] For serum stability assay, both peptides were exposed to 25% and 50% fetal bovine serum (FBS) for 1 h at 37°C, followed by a heat activation step for 30 min at 60°C. Afterward, the peptide solutions were serially diluted and MIC was subsequently determined. For the salt stability assay, each peptide was treated in MHB supplemented with different salts at their physiological concentrations; NaCl (100, 150, and 200 mM), MgCl2 (0.5, 1 and 2 mM), and FeCl3 […]. The serial dilutions of peptides were incubated with tested strains for MIC testing. The MICs were observed after 20–24 h of incubation at 37°C.

E. coli ATCC 25922 = system: E. coli ATCC 25922
Method: as §1, §2

[4] = 25% fetal bovine serum, 1 h at 37 °C
[5] = 50% fetal bovine serum, 1 h at 37 °C
[6] = pH 2, 100 mM glycine-HCl buffer, 1 h at 37 °C, neutralized
[7] = pH 4, 100 mM sodium acetate buffer, 1 h at 37 °C, neutralized
[8] = pH 6, 100 mM sodium phosphate buffer, 1 h at 37 °C, neutralized
[9] = pH 8, 100 mM Tris-HCl buffer, 1 h at 37 °C, neutralized
[10] = pH 10, 100 mM glycine-NaOH buffer, 1 h at 37 °C, neutralized
[11] = peptide incubated 1 h at 25 °C (control)

Compound | Cell viability at highest concentration [1] [%] | IC50 [1] [µg/mL] | MIC after FBS treatment ([3]; 0% FBS (control)) [µg/mL] | MIC after FBS treatment [3, 4] [µg/mL] | MIC after FBS treatment [3, 5] [µg/mL] | MIC after pH treatment [3, 6] [μg/mL] | MIC after pH treatment [3, 7] [μg/mL] | MIC after pH treatment [3, 8] [μg/mL] | MIC after pH treatment ([3]; pH 7 (control)) [μg/mL] | MIC after pH treatment [3, 9] [μg/mL] | MIC after pH treatment [3, 10] [μg/mL] | MIC after temperature treatment [3, 11] [µg/mL] | MIC after temperature treatment ([3]; peptide incubated 1 h at 37 °C) [µg/mL] | MIC after temperature treatment ([3]; peptide incubated 1 h at 50 °C) [µg/mL] | MIC after temperature treatment ([3]; peptide incubated 1 h at 70 °C) [µg/mL] | MIC after temperature treatment ([3]; peptide incubated 1 h at 90 °C) [µg/mL] | MIC after FBS treatment (E. coli ATCC 25922; 0% FBS (control)) [µg/mL] | MIC after FBS treatment (E. coli ATCC 25922; [4]) [µg/mL] | MIC after FBS treatment (E. coli ATCC 25922; [5]) [µg/mL] | MIC after pH treatment (E. coli ATCC 25922; [6]) [μg/mL] | also measured
CC[C@H](C)[C@H](NC(=O)[C@H](CCCCN)NC(=O)[C@H](CCCCN)NC(=O)[C@H](Cc1ccccc1)NC(=O)[C@H](CC(C)C)NC(=O)[C@H](CCCCN)NC(=O)[C@@H](N)CCCCN)C(=O)N[C@@H](CC(C)C)C(=O)N[C@@H](CCCNC(=N)N)C(=O)N[C@@H](Cc1ccc(O)cc1)C(=O)N[C@@H](CC(C)C)C(N)=O [BP203] | 56.01 | > 200 | 4 (≈ 2.76 µM) | 4 (≈ 2.76 µM) | 4 (≈ 2.76 µM) | 4 | 4 | 4 | 4 | 4 | 4 | 4 (≈ 2.76 µM) | 4 (≈ 2.76 µM) | 4 (≈ 2.76 µM) | 4 (≈ 2.76 µM) | 4 (≈ 2.76 µM) | 4 (≈ 2.76 µM) | 4 (≈ 2.76 µM) | 8 (≈ 5.52 µM) | 4 | Hemolytic activity ([2]; at 150 μM (~300 μg/mL)): 31%; MIC after pH treatment (E. coli ATCC 25922; [7]): 4 μg/mL; MIC after pH treatment (E. coli ATCC 25922; [8]): 4 μg/mL; MIC after pH treatment (E. coli ATCC 25922; pH 7 (control)): 4 μg/mL; MIC after pH treatment (E. coli ATCC 25922; [9]): 4 μg/mL; MIC after pH treatment (E. coli ATCC 25922; [10]): 4 μg/mL; MIC after temperature treatment (E. coli ATCC 25922; [11]): 4 µg/mL (≈ 2.76 µM); MIC after temperature treatment (E. coli ATCC 25922; peptide incubated 1 h at 37 °C): 4 µg/mL (≈ 2.76 µM); MIC after temperature treatment (E. coli ATCC 25922; peptide incubated 1 h at 50 °C): 4 µg/mL (≈ 2.76 µM); MIC after temperature treatment (E. coli ATCC 25922; peptide incubated 1 h at 70 °C): 4 µg/mL (≈ 2.76 µM); MIC after temperature treatment (E. coli ATCC 25922; peptide incubated 1 h at 90 °C): 4 µg/mL (≈ 2.76 µM)
KWLRRPWRRWR-NH2 [MAP-0403 J-2] | 73.43 | > 200 | 16 | 16 | 16 | 16 | 16 | 16 | 16 | 16 | 16 | 16 | 16 | 16 | 16 | 16 | 16 | 16 | 32 | 16 | Hemolytic activity ([2]; at 100 μM (~678 μg/mL)): 3.4%; MIC after pH treatment (E. coli ATCC 25922; [7]): 16 μg/mL; MIC after pH treatment (E. coli ATCC 25922; [8]): 16 μg/mL; MIC after pH treatment (E. coli ATCC 25922; pH 7 (control)): 16 μg/mL; MIC after pH treatment (E. coli ATCC 25922; [9]): 16 μg/mL; MIC after pH treatment (E. coli ATCC 25922; [10]): 16 μg/mL; MIC after temperature treatment (E. coli ATCC 25922; [11]): 16 µg/mL; MIC after temperature treatment (E. coli ATCC 25922; peptide incubated 1 h at 37 °C): 16 µg/mL; MIC after temperature treatment (E. coli ATCC 25922; peptide incubated 1 h at 50 °C): 16 µg/mL; MIC after temperature treatment (E. coli ATCC 25922; peptide incubated 1 h at 70 °C): 16 µg/mL; MIC after temperature treatment (E. coli ATCC 25922; peptide incubated 1 h at 90 °C): 16 µg/mL
